The values below come from US20100035866A1, “NOVEL SUBSTITUTED-1, 1-DIOXO-BENZO[1,2,4]THIADIAZIN-3ONES, PREPARATION METHOD THEREOF, AND PHARMACEUTICAL COMPOSITION CONTAINING THE SAME” (KOREA RESEARCH INSTITUTE OF CHEMICAL TECHNOLOGY, priority 2006, published 2010).

The target in series [1] is Human serotonin 5-HT6 receptor (Homo sapiens, UniProt P50406). The experiment in a line: [3H]LSD binding assay on cloned 5-HT6 receptor. The following applies: IC50 (nM), binding affinity to the 5-HT6 receptor, Table 2; 1.87 nM [3H]LSD, cloned human receptor membranes from Sf21 cells, 37° C. 60 min.
Human serotonin 5-HT6 receptor, sequence (P50406 whole entry): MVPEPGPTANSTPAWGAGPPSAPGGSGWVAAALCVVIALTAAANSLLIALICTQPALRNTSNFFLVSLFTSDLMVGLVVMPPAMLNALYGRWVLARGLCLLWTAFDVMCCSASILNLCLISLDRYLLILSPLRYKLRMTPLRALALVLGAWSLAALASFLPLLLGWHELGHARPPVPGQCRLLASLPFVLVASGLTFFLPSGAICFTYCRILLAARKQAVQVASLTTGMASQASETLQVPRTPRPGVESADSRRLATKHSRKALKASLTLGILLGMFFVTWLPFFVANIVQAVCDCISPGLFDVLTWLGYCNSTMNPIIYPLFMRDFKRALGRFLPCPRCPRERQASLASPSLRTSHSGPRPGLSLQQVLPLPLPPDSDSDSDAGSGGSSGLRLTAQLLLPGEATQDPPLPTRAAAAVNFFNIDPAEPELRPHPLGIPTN

Where only a bound is given, the exact number is not on record here.

As usually defined, the melting point is the temperature of the solid-liquid transition. As a reminder, the IC50 is the concentration at which inhibition is half-maximal. A higher IC50 goes with weaker potency. For the compound `O=C1N(Cc2ccccc2)c2cc(Cl)cc(N3CCN4CCCC[C@@H]4C3)c2S(=O)(=O)N1Cc1ccccc1Cl` [Example 75, 4-Benzyl-6-chloro-2-(2-chloro-benzyl)-8-[(6R)-1,4-diazabicyclo[4.4.0]dec-4-yl]-1,1-dioxo-1,4-dihydro-2H-1λ^6-benzo[1,2,4]thiadiazin-3-one], the melting point lay in the range of 157 to 159 °C. The compound also registered a half-inhibitory concentration (IC50) in series [1] of 396 nM.

As for `Cc1ccc(CN2C(=O)N(Cc3ccccc3)c3cc(Cl)cc(N4CCN(C)CC4)c3S2(=O)=O)cc1` [Example 15, 4-Benzyl-6-chloro-2-(4-methyl-benzyl)-8-(4-methyl-piperazin-1-yl)-1,1-dioxo-1,4-dihydro-2H-1λ^6-benzo[1,2,4]thiadiazin-3-one], the melting point is 180 to 185 °C. Also, the IC50 in series [1] came out at 5.4 nM.

`COc1ccccc1N1C(=O)N(Cc2ccccc2)c2cc(Cl)cc(N3CCNCC3)c2S1(=O)=O` [Example 61, 4-Benzyl-6-chloro-2-(2-methoxy-phenyl)-1,1-dioxo-8-piperazin-1-yl-1,4-dihydro-2H-1λ^6-benzo[1,2,4]thiadiazin-3-one] had a melting point of 175 to 176 °C. Further, the IC50 in series [1] is 50.7 nM.

Regarding `O=C1N(Cc2ccccc2)c2cc(Cl)cc(N3CCNCC3)c2S(=O)(=O)N1Cc1ccc(I)cc1` [Example 49, 4-Benzyl-6-chloro-2-(4-iodo-benzyl)-1,1-dioxo-8-piperazin-1-yl-1,4-dihydro-2H-1λ^6-benzo[1,2,4]thiadiazin-3-one], the melting point is 153 to 154 °C. The compound further had an IC50 in series [1] of 17.1 nM.

Take `CN1CCN(c2cc(Cl)cc3c2S(=O)(=O)N(Cc2ccc(F)cc2)C(=O)N3Cc2ccccc2)CC1` [Example 4, 4-Benzyl-6-chloro-2-(4-fluoro-benzyl)-8-(4-methyl-piperazin-1-yl)-1,1-dioxo-1,4-dihydro-2H-1λ^6-benzo[1,2,4]thiadiazin-3-one]: the melting point was in the range of 112 to 113 °C. In series [1], this compound registered an IC50 of 5.4 nM.

For the compound `COC(=O)c1ccc(CN2C(=O)N(Cc3ccccc3)c3cc(Cl)cc(N4CCNCC4)c3S2(=O)=O)cc1` [Example 56, 4-(4-Benzyl-6-chloro-1,1,3-trioxo-8-piperazin-1-yl-3,4-dihydro-1H-1λ^6-benzo[1,2,4]thiadiazin-2-ylmethyl)-benzoic acid methyl ester], the melting point fell in the range of 136 to 139 °C. Further, in series [1], the IC50 is 8.4 nM.

On to `CN1CCN(c2cc(Cl)cc3c2S(=O)(=O)N(Cc2ccccc2[N+](=O)[O-])C(=O)N3Cc2ccccc2)CC1` [Example 20, 4-Benzyl-6-chloro-8-(4-methyl-piperazin-1-yl)-2-(2-nitro-benzyl)-1,1-dioxo-1,4-dihydro-2H-1λ^6-benzo[1,2,4]thiadiazin-3-one], for which the melting point lay within 84 to 86 °C. Further, the IC50 in series [1] was 12.3 nM.

In turn, `Cc1ccccc1CN1C(=O)N(Cc2ccccc2)c2cc(Cl)cc(N3CCN(C)CC3)c2S1(=O)=O` [Example 13, 4-Benzyl-6-chloro-2-(2-methyl-benzyl)-8-(4-methyl-piperazin-1-yl)-1,1-dioxo-1,4-dihydro-2H-1λ^6-benzo[1,2,4]thiadiazin-3-one] yielded a melting point of 148 to 150 °C. The IC50 in series [1] was found to be 1.6 nM.

The compound `CN1CCN(c2cc(Cl)cc3c2S(=O)(=O)N(CCc2ccccc2)C(=O)N3Cc2ccccc2)CC1` [Example 37, 4-Benzyl-6-chloro-8-(4-methyl-piperazin-1-yl)-1,1-dioxo-2-phenethyl-1,4-dihydro-2H-1λ^6-benzo[1,2,4]thiadiazin-3-one] yielded a melting point of 151 to 152 °C. Also, the IC50 in series [1] stood at 6.9 nM.

In turn, `C[C@@H]1CN(c2cc(Cl)cc3c2S(=O)(=O)N(Cc2ccccc2Cl)C(=O)N3Cc2ccccc2)CCN1` [Example 71, 4-Benzyl-6-chloro-2-(2-chloro-benzyl)-8-[(R)-3-methyl-piperazin-1-yl]-1,1-dioxo-1,4-dihydro-2H-1λ^6-benzo[1,2,4]thiadiazin-3-one] came in with a melting point of 134 to 136 °C. Further, the IC50 in series [1] stood at 147 nM.

Compound `CN1CCN(c2cc(Cl)cc3c2S(=O)(=O)N(Cc2cccc(Cl)c2)C(=O)N3Cc2ccccc2)CC1` [Example 6, 4-Benzyl-6-chloro-2-(3-chloro-benzyl)-8-(4-methyl-piperazin-1-yl)-1,1-dioxo-1,4-dihydro-2H-1λ^6-benzo[1,2,4]thiadiazin-3-one] had a melting point of 87 to 88 °C. Also, the 50% inhibitory concentration (IC50) in series [1] stood at 5.2 nM.

`N#Cc1ccc(CN2C(=O)N(Cc3ccccc3)c3cc(Cl)cc(N4CCNCC4)c3S2(=O)=O)cc1` [Example 57, 4-(4-Benzyl-6-chloro-1,1,3-trioxo-8-piperazin-1-yl-3,4-dihydro-1H-1λ^6-benzo[1,2,4]thiadiazin-2-ylmethyl)-benzonitrile] came in with a melting point of 135 to 137 °C. The compound further had a half-maximal inhibitory concentration (IC50) in series [1] of 18 nM.

`O=C1N(Cc2ccccc2)c2cc(Cl)cc(N3CCOCC3)c2S(=O)(=O)N1Cc1ccccc1Cl` [Example 69, 4-Benzyl-6-chloro-2-(2-chloro-benzyl)-8-morpholin-4-yl-1,1-dioxo-1,4-dihydro-2H-1λ^6-benzo[1,2,4]thiadiazin-3-one] came in with a melting point of 171 to 172 °C. Moreover, the half-inhibitory concentration (IC50) in series [1] was > 1000 nM.

Regarding `O=C1N(Cc2ccccc2)c2cc(Cl)cc(N3CCNCC3)c2S(=O)(=O)N1Cc1cccc2ccccc12` [Example 68, 4-Benzyl-6-chloro-2-naphthalen-1-ylmethyl-1,1-dioxo-8-piperazin-1-yl-1,4-dihydro-2H-1λ^6-benzo[1,2,4]thiadiazin-3-one], the melting point fell in the range of 164 to 166 °C. This compound returned an IC50 in series [1] of 6.9 nM.

With `COc1cccc(N2C(=O)N(Cc3ccccc3)c3cc(Cl)cc(N4CCN(C)CC4)c3S2(=O)=O)c1` [Example 29, 4-Benzyl-6-chloro-2-(3-methoxy-phenyl)-8-(4-methyl-piperazin-1-yl)-1,1-dioxo-1,4-dihydro-2H-1λ^6-benzo[1,2,4]thiadiazin-3-one], the melting point is 191 to 193 °C. The same compound registered an IC50 in series [1] of 1.7 nM.

`CN1CCN(c2cc(Cl)cc3c2S(=O)(=O)N(Cc2cccc(I)c2)C(=O)N3Cc2ccccc2)CC1` [Example 11, 4-Benzyl-6-chloro-2-(3-iodo-benzyl)-8-(4-methyl-piperazin-1-yl)-1,1-dioxo-1,4-dihydro-2H-1λ^6-benzo[1,2,4]thiadiazin-3-one] registered a melting point of 96 to 98 °C. In series [1], this compound came in with an IC50 of 4.4 nM.

As for `O=C1N(Cc2ccccc2)c2cc(Cl)cc(N3CCNCC3)c2S(=O)(=O)N1c1ccccc1` [Example 60, 4-Benzyl-6-chloro-1,1-dioxo-2-phenyl-8-piperazin-1-yl-1,4-dihydro-2H-1λ^6-benzo[1,2,4]thiadiazin-3-one], the melting point was 275 to 277 °C. The compound also had an IC50 in series [1] of 15.5 nM.

The compound `O=C1N(Cc2ccccc2)c2cc(Cl)cc(N3CCNCC3)c2S(=O)(=O)N1Cc1ccccc1Br` [Example 48, 4-Benzyl-2-(2-bromo-benzyl)-6-chloro-1,1-dioxo-8-piperazin-1-yl-1,4-dihydro-2H-1λ^6-benzo[1,2,4]thiadiazin-3-one] yielded a melting point of 144 to 145 °C. The IC50 in series [1] is 46 nM.

On to `COc1ccc(N2C(=O)N(Cc3ccccc3)c3cc(Cl)cc(N4CCN(C)CC4)c3S2(=O)=O)cc1` [Example 30, 4-Benzyl-6-chloro-2-(4-methoxy-phenyl)-8-(4-methyl-piperazin-1-yl)-1,1-dioxo-1,4-dihydro-2H-1λ^6-benzo[1,2,4]thiadiazin-3-one], for which the melting point lay within 115 to 116 °C. The compound also registered an IC50 in series [1] of 5.2 nM.
